In the assay the target is firefly luciferase (Fluc) (Photinus pyralis, UniProt P08659). Briefly: luminescence emission spectrum. Format: biochemical.
Sequence of firefly luciferase (Fluc) (P08659 whole entry): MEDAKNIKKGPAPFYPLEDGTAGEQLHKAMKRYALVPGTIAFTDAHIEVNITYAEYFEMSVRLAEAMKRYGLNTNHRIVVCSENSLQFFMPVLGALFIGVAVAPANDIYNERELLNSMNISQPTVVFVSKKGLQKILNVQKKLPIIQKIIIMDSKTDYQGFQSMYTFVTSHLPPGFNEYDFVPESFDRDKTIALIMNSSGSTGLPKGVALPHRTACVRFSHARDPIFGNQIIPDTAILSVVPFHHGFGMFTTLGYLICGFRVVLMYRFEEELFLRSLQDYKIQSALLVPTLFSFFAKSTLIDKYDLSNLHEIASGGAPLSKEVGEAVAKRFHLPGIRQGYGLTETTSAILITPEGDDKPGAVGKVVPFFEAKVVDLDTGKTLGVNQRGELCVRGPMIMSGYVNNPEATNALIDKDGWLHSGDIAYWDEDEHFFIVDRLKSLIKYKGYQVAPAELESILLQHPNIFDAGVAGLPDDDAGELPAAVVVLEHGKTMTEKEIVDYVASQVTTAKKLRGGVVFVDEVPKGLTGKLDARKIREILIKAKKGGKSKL

Turning to `O=C(O)[C@H]1CSC(c2nc3ccc(O)cc3s2)=N1` [D-luciferin], the luminescence emission spectrum entry is reported as “Fluc (D-luciferin)”.

The values are drawn from publication PMC3501149 (ACS Chemical Biology, 2012).
